Measurements reported in US20030004172A1, “Fused pyrimidinone matrix metalloproteinase inhibitors” (priority 2001, published 2003).
Read-outs that look alike come from different tables or passages of the source.

Columns and labels:
Type in all cases: biochemical
[1] = molecular target: MMP-13CD (catalytic domain of collagenase-3) (Homo sapiens, UniProt P45452); test: Thiopeptolide substrate hydrolysis inhibition assay, MMP-13CD
From the text: (§1) Thiopeptolide substrates show virtually no decomposition or hydrolysis at or below neutral pH in the absence of a matrix metalloproteinase enzyme.

[2] = molecular target: T1, MMP-1FL (full-length interstitial collagenase) (Homo sapiens, UniProt P03956); test: Thiopeptolide substrate hydrolysis inhibition assay, MMP-1FL; settings: Table II; micromolar concentration; HEPES pH 7.0
T1 sequence (P03956 100-469): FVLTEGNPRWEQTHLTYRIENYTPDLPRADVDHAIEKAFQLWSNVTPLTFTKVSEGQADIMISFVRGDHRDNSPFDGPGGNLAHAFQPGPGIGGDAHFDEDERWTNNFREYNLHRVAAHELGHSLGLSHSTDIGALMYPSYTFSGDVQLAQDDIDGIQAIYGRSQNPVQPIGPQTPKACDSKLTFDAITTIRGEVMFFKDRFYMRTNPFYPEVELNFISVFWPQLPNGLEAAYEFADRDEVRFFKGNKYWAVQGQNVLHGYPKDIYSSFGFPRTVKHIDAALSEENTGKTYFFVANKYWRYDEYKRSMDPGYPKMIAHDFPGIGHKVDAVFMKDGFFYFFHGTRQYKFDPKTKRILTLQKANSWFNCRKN
From the text: as §1

[3] = molecular target: T2, MMP-2FL (full length Gelatinase A) (Homo sapiens, UniProt P08253); test: Thiopeptolide substrate hydrolysis inhibition assay, MMP-2FL; settings: Table II; micromolar concentration; HEPES pH 7.0
T2 sequence (P08253 110-660): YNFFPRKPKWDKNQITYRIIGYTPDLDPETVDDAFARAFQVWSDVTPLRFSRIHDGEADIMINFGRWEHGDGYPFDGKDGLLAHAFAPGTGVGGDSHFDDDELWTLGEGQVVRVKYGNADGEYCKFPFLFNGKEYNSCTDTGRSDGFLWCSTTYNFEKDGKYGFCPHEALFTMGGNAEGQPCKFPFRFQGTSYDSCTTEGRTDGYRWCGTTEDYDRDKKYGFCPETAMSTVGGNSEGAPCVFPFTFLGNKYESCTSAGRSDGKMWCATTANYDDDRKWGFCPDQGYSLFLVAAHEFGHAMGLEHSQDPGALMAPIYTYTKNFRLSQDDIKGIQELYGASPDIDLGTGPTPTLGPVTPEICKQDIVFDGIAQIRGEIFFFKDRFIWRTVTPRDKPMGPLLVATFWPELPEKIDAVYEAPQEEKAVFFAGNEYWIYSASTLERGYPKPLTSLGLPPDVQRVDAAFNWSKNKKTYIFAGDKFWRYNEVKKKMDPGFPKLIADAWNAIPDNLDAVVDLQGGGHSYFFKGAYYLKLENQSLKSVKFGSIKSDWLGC
From the text: as §1

[4] = molecular target: MMP-3CD (catalytic domain of stromelysin-1) (Homo sapiens, UniProt P08254); test: Thiopeptolide substrate hydrolysis inhibition assay, MMP-3CD; settings: Table II; micromolar concentration; MES buffer pH 6.0
Experimental: as §1
It should be appreciated that the assay buffer used with MMP-3CD is 50 mM N-morpholinoethanesulfonate (“MES”) at pH 6.0 rather than the HEPES buffer at pH 7.0 described above.

[5] = molecular target: T3, MMP-7FL (full-length matrilysin) (Homo sapiens, UniProt P09237); test: Thiopeptolide substrate hydrolysis inhibition assay, MMP-7FL; settings: Table II; micromolar concentration; HEPES pH 7.0
T3 sequence (P09237 95-267): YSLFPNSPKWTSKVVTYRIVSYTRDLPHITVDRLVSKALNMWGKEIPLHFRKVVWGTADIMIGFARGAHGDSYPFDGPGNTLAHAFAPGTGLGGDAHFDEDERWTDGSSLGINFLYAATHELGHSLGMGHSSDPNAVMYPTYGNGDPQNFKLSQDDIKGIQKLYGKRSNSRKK
From the text: as §1

[6] = molecular target: MMP-9FL (full-length Gelatinase B) (Homo sapiens, UniProt P14780); test: Thiopeptolide substrate hydrolysis inhibition assay, MMP-9FL; settings: Table II; micromolar concentration; HEPES pH 7.0
From the text: as §1

[7] = molecular target: T4, MMP-12CD (Homo sapiens, UniProt P39900); test: Thiopeptolide substrate hydrolysis inhibition assay, MMP-12CD; settings: Table II; micromolar concentration; HEPES pH 7.0
T4 construct: 12CD
From the text: as §1

[8] = molecular target: MMP-14CD (catalytic domain of MMP-14) (Homo sapiens, UniProt P50281); test: Thiopeptolide substrate hydrolysis inhibition assay, MMP-14CD; settings: Table II; micromolar concentration; HEPES pH 7.0
From the text: as §1

[9] = Table II, micromolar concentration, HEPES pH 7.0, read-out: IC50 MMP-13CD
[10] = Table I, thiopeptolide substrate, HEPES pH 7.0, 22° C., read-out: MMP-13CD IC50

Sequence of MMP-9FL (full-length Gelatinase B) (P14780 94-707, species assumed): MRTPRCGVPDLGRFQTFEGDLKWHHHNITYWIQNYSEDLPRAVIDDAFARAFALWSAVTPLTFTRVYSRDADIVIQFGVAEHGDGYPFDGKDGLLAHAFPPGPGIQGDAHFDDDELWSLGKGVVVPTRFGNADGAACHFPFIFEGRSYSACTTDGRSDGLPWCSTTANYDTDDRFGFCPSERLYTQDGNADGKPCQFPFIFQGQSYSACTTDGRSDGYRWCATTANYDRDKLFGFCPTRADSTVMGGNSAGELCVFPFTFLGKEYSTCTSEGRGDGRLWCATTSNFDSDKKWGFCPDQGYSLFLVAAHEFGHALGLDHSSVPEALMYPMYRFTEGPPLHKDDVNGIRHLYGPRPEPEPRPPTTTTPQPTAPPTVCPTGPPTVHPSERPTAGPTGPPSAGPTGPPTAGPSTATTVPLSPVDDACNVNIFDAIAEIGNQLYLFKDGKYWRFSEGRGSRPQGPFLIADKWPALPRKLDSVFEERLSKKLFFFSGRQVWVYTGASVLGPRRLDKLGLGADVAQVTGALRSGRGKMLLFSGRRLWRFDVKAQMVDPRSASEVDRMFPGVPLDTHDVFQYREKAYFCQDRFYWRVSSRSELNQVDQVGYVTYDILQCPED
Sequence of MMP-3CD (catalytic domain of stromelysin-1) (P08254 100-272 limits assumed): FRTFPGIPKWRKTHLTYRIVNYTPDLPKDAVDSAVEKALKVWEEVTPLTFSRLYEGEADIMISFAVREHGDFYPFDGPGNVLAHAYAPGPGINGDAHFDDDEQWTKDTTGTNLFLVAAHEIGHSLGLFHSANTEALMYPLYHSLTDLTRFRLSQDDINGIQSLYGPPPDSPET
T4 sequence (P39900 106-263 limits assumed): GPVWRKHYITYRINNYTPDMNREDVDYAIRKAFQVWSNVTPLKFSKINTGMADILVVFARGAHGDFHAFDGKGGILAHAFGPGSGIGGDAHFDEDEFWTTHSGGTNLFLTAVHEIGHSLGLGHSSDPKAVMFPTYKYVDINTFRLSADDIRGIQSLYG

In the case of `COc1cccc(CNC(=O)c2cc3c(=O)n(Cc4ccc(S(=O)(=O)N5CCC(C)CC5)cc4)c(=O)n(C)c3s2)c1` [Example 47, 1-Methyl-3-[4-(4-methyl-piperidine-1-sulfonyl)-benzyl]-2,4-dioxo-1,2,3,4-tetrahydro-thieno[2,3-d]pyrimidine-6-carboxylic acid 3-methoxy-benzylamide], the IC50 [1, 9] is reported as 0.038 µM, the IC50 [2] is reported as 30 µM and the IC50 [3] is reported as 30 µM. The IC50 [4] was 30 µM, the IC50 [5] was 14 µM and the IC50 [6] was 30 µM. It also gave an IC50 [7] of 30 µM and an IC50 [8] of 10 µM.

Work on `COc1ccc(CNC(=O)c2cc3c(=O)n(Cc4cccc(OC)c4)c(=O)n(C)c3s2)cc1` [Example 63, 3-(3-Methoxy-benzyl)-1-methyl-2,4-dioxo-1,2,3,4-tetrahydro-thieno[2,3-d]pyrimidine-6-carboxylic acid 4-methoxy-benzylamide] yielded an IC50 [1, 10] of 0.11 µM, an IC50 [1, 9] of 0.11 µM and an IC50 [2] of 30 µM. It also gave an IC50 [3] of 30 µM, an IC50 [4] of 18 µM and an IC50 [5] of 30 µM. For the same molecule, the IC50 [6] was 30 µM, the IC50 [7] was 30 µM and the IC50 [8] was 30 µM.

Work on `COC(=O)c1ccc(Cn2c(=O)c3cc(C(=O)NCc4ccc(OC)cc4)sc3n(C)c2=O)cc1OC` [Example 228, 2-Methoxy-4-[6-(4-methoxy-benzylcarbamoyl)-1-methyl-2,4-dioxo-1,4-dihydro-2H-thieno[2,3-d]pyrimidin-3-ylmethyl]-benzoic acid methyl ester] yielded an IC50 [1, 10] of 0.435 µM, an IC50 [1, 9] of 0.435 µM and an IC50 [2] of 30 µM. The IC50 [3] was 30 µM, the IC50 [4] was 15 µM and the IC50 [5] was 10 µM. It also gave an IC50 [6] of 30 µM, an IC50 [7] of 30 µM and an IC50 [8] of 30 µM.

With `COc1ccc(CNC(=O)c2cc3c(=O)n(CCOc4ccc(Br)cc4)c(=O)n(C)c3s2)cc1` [Example 232, 3-[2-(4-Bromo-phenoxy)-ethyl]-1-methyl-2,4-dioxo-1,2,3,4-tetrahydro-thieno[2,3-d]pyrimidine-6-carboxylic acid 4-methoxy-benzylamide] the IC50 [1, 10] was 0.175 µM, the IC50 [1, 9] was 0.18 µM and the IC50 [2] was 30 µM. For the same molecule, the IC50 [3] was 30 µM, the IC50 [4] was 17 µM and the IC50 [5] was 30 µM. It also gave an IC50 [6] of 30 µM, an IC50 [7] of 30 µM and an IC50 [8] of 30 µM.

`COc1cccc(CNC(=O)c2cc3c(=O)n(CCS(=O)(=O)c4ccc(Cl)cc4)c(=O)n(C)c3s2)c1` [Example 246, 3-[2-(4-Chloro-benzenesulfonyl)-ethyl]-1-methyl-2,4-dioxo-1,2,3,4-tetrahydro-thieno[2,3-d]pyrimidine-6-carboxylic acid 3-methoxy-benzylamide] gave an IC50 [1, 10] of 5.65 µM, an IC50 [1, 9] of 5.65 µM and an IC50 [3] of 30 µM. The IC50 [4] was 23 µM, the IC50 [5] was 48 µM and the IC50 [6] was 30 µM. For the same molecule, the IC50 [7] was 30 µM and the IC50 [8] was 36 µM.

For `COc1ccc(CNC(=O)c2cc3c(=O)n(Cc4ccc([N+](=O)[O-])nc4)c(=O)n(C)c3s2)cc1` [Example 369, 1-Methyl-3-(6-nitro-pyridin-3-ylmethyl)-2,4-dioxo-1,2,3,4-tetrahydro-thieno[2,3-d]pyrimidine-6-carboxylic acid 4-methoxy-benzylamide], the IC50 [1, 10] was 1.04 µM, the IC50 [1, 9] was 1.04 µM and the IC50 [2] was 10 µM. For the same molecule, the IC50 [3] was 30 µM, the IC50 [4] was 10 µM and the IC50 [5] was 30 µM. For the same molecule, the IC50 [6] was 30 µM, the IC50 [7] was 30 µM and the IC50 [8] was 30 µM.
